The test system of this test is L1210 leukemia ip in BDF1 mice, survival T/C. Briefly: NCI In Vivo Anticancer Drug Screen. Data for tumor model L1210 Leukemia (intraperitoneal) in B6D2F1 (BDF1) mice. Particulars: endpoint: mean survival time, higher = longer survival. Put shortly:
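Value reflects the ratio of survival in compound-treated mice to survival in vehicle-treated controls, with both groups carrying the same transplanted tumor.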

[1] abbreviates: dose: 100.0 mg/kg/injection, schedule: Q01DX009 (ip), vehicle: Klucel (hydroxypropylcellulose) (HPC).
[2] abbreviates: dose: 100.0 mg/kg/injection, schedule: Q04DX003 (ip), vehicle: Klucel (hydroxypropylcellulose) (HPC).
[3] abbreviates: dose: 200.0 mg/kg/injection, schedule: Q01DX009 (ip), vehicle: Klucel (hydroxypropylcellulose) (HPC).
Where [4] appears, read: dose: 200.0 mg/kg/injection, schedule: Q04DX003 (ip), vehicle: Klucel (hydroxypropylcellulose) (HPC).
Where [5] appears, read: dose: 400.0 mg/kg/injection, schedule: Q01DX009 (ip), vehicle: Klucel (hydroxypropylcellulose) (HPC).
Where [6] appears, read: dose: 400.0 mg/kg/injection, schedule: Q04DX003 (ip), vehicle: Klucel (hydroxypropylcellulose) (HPC).
Where [7] appears, read: dose: 100.0 mg/kg/injection, schedule: Q01DX009 (ip), vehicle: saline with Tween-80.
The mark [8] stands for this setting: dose: 100.0 mg/kg/injection, schedule: Q04DX003 (ip), vehicle: saline with Tween-80.
The mark [9] stands for this setting: dose: 200.0 mg/kg/injection, schedule: Q01DX009 (ip), vehicle: saline with Tween-80.
Setting [10] is: dose: 200.0 mg/kg/injection, schedule: Q04DX003 (ip), vehicle: saline with Tween-80.
Setting [11] is: dose: 400.0 mg/kg/injection, schedule: Q01DX009 (ip), vehicle: saline with Tween-80.
Where [12] appears, read: dose: 400.0 mg/kg/injection, schedule: Q04DX003 (ip), vehicle: saline with Tween-80.
The mark [13] stands for this setting: dose: 100.0 mg/kg/injection, schedule: Q04DX002 (ip), vehicle: saline.
[14] abbreviates: dose: 200.0 mg/kg/injection, schedule: Q04DX002 (ip), vehicle: saline.
[15] abbreviates: dose: 100.0 mg/kg/injection, schedule: Q01DX001 (ip), vehicle: Klucel (hydroxypropylcellulose) (HPC).
Setting [16] is: dose: 200.0 mg/kg/injection, schedule: Q01DX001 (ip), vehicle: Klucel (hydroxypropylcellulose) (HPC).
The mark [17] stands for this setting: dose: 400.0 mg/kg/injection, schedule: Q01DX001 (ip), vehicle: Klucel (hydroxypropylcellulose) (HPC).
The mark [18] stands for this setting: dose: 50.0 mg/kg/injection, schedule: Q04DX002 (ip), vehicle: saline.

Each structure is given as a SMILES string. Several values for one entry are separate records, joined by “and”; a condition that tells them apart may be missing. Equal entries are not always repeated. Inconclusive results and toxic doses are left out.

As to `c1ccc(C23c4ccccc4C(=NC4CCCCC4)C2N3C2CCCCC2)cc1` (stereo not given), the T/C is, setting by setting: (dose: 100.0 mg/kg/injection, schedule: Q01DX001 (ip), vehicle: saline) 94 % of control; under setting [1], 97 % of control; under setting [2], 93 % of control; (dose: 200.0 mg/kg/injection, schedule: Q01DX001 (ip), vehicle: saline) 104 % of control; under setting [3], 92 % of control; under setting [4], 94 % of control. Besides, the T/C is 110 % of control (dose: 400.0 mg/kg/injection, schedule: Q01DX001 (ip), vehicle: saline); 91 % of control under setting [5]; 98 % of control under setting [6].
As to `O=C(Nc1ccc(S(=O)(=O)Nc2ccc(N=Nc3ccccc3)cc2)cc1)C(SC1=NC=NC2=NC=NC21)SC1=NC=NC2=NC=NC21` (stereo not given), the T/C reads like this: (dose: 75.0 mg/kg/injection, schedule: Q04DX003 (ip), vehicle: saline) 104 % of control; (dose: 150.0 mg/kg/injection, schedule: Q04DX003 (ip), vehicle: saline) 96 % of control; (dose: 300.0 mg/kg/injection, schedule: Q04DX003 (ip), vehicle: saline) 109 % of control.
As to `CCOC(=O)C1C(=O)C(CN(CCCl)CCCl)C(=O)C(C(=O)OCC)C1c1ccc(O)cc1` (stereo not given), the T/C under setting [1] is 113 % of control; the T/C under setting [2] was 106 % of control; the T/C under setting [3] was 112 % of control; the T/C under setting [4] is 110 % of control; the T/C under setting [5] was 110 % of control; the T/C under setting [6] was 114 % of control.
`CCCCCCOC(=O)Nc1ccc(S(=O)(=O)CC)cc1`: the T/C runs as follows: (dose: 100.0 mg/kg/injection, schedule: Q01DX001 (ip), vehicle: carboxymethylcellulose (CMC)) 100 % of control; (dose: 200.0 mg/kg/injection, schedule: Q01DX001 (ip), vehicle: carboxymethylcellulose (CMC)) 97 % of control; (dose: 400.0 mg/kg/injection, schedule: Q01DX001 (ip), vehicle: carboxymethylcellulose (CMC)) 97 % of control.
As for `CC(=O)Nc1cc(N)cc(NC(C)=O)c1`, the T/C reads like this: (dose: 50.0 mg/kg/injection, schedule: Q01DX009 (ip), vehicle: water) 91 % of control; (dose: 100.0 mg/kg/injection, schedule: Q01DX009 (ip), vehicle: water) 103 % of control and 107 % of control; (dose: 100.0 mg/kg/injection, schedule: Q04DX003 (ip), vehicle: water) 100 % of control; (dose: 200.0 mg/kg/injection, schedule: Q01DX009 (ip), vehicle: water) 102 % of control and 103 % of control; (dose: 200.0 mg/kg/injection, schedule: Q04DX003 (ip), vehicle: water) 98 % of control; (dose: 400.0 mg/kg/injection, schedule: Q01DX009 (ip), vehicle: water) 93 % of control.
As for `O=C1C(=O)c2ccccc2C(O)=C1CCCc1ccc(OCc2ccccc2)cc1`, for the setting “dose: 12.5 mg/kg/injection, schedule: Q01DX009 (ip), vehicle: saline with Tween-80”, the T/C is 92 % of control.
On to `CCCCNC(C)(C)CSS(=O)(=O)O`, for which the T/C is, setting by setting: (dose: 50.0 mg/kg/injection, schedule: Q01DX009 (ip), vehicle: saline with Tween-80) 97 % of control; under setting [7], 109 % of control; under setting [8], 96 % of control; under setting [9], 103 % of control; under setting [10], 96 % of control; under setting [11], 103 % of control. Further, the T/C under setting [12] was 96 % of control.
In the case of `CC(=O)OC1CCC2(C)C3CCC4(C)C(C(C)/C=C/C(C)C(C)C)CCC4C34C=CC2(C1)C1C(=O)OC(=O)C14` (stereo not given), the T/C under setting [13] is 93 % of control; the T/C under setting [14] was 96 % of control; the T/C (dose: 400.0 mg/kg/injection, schedule: Q04DX002 (ip), vehicle: saline) was 89 % of control.
For the compound `O=C(O)CN(Cc1ccccc1)Cc1ccccc1`, the T/C by setting is: under setting [2], 95 % of control; under setting [4], 98 % of control; under setting [6], 98 % of control.
As to `CS(=O)(=O)CCC(NC(=O)NCCCl)C(=O)O` (stereo not given), the T/C under setting [15] is 104 % of control, the T/C under setting [16] was 96 % of control and the T/C under setting [17] is 100 % of control.
Regarding `CCN(CC)CCOc1ccc(N=N/C(C(C)=O)=C(\C)O)cc1`, the T/C is 93 % of control and 96 % of control (dose: 25.0 mg/kg/injection, schedule: Q04DX002 (ip), vehicle: saline); 101 % of control and 104 % of control under setting [18].
For `CCNc1nc(Cl)nc(NCC)n1`, the T/C runs as follows: (dose: 100.0 mg/kg/injection, schedule: Q01DX009 (ip), vehicle: saline sonified) 98 % of control; under setting [7], 95 % of control; under setting [2], 94 % of control and 103 % of control; (dose: 200.0 mg/kg/injection, schedule: Q01DX009 (ip), vehicle: saline sonified) 98 % of control; under setting [9], 94 % of control; under setting [4], 94 % of control and 103 % of control. In addition, the T/C reads like this: (dose: 400.0 mg/kg/injection, schedule: Q01DX009 (ip), vehicle: saline sonified) 96 % of control; under setting [11], 100 % of control; under setting [6], 102 % of control and 103 % of control.
On to `c1ccc([P+](Cc2cccc(C[P+](c3ccccc3)(c3ccccc3)c3ccccc3)c2)(c2ccccc2)c2ccccc2)cc1`, for which the T/C (dose: 1.2 mg/kg/injection, schedule: Q01DX001 (ip), vehicle: acetone) was 107 % of control and the T/C (dose: 2.5 mg/kg/injection, schedule: Q01DX001 (ip), vehicle: acetone) is 99 % of control.
For `Clc1ccc(C2=Nc3cccc4cccc(c34)N2)cc1Cl`, the T/C was 97 % of control (dose: 15.0 mg/kg/injection, schedule: Q01DX Z (ip), vehicle: saline); 105 % of control (dose: 30.0 mg/kg/injection, schedule: Q01DX Z (ip), vehicle: saline); 100 % of control (dose: 60.0 mg/kg/injection, schedule: Q01DX Z (ip), vehicle: saline); 91 % of control (dose: 60.0 mg/kg/injection, schedule: Q01DX Z (oral), vehicle: saline); 96 % of control (dose: 120.0 mg/kg/injection, schedule: Q01DX Z (oral), vehicle: saline); 94 % of control (dose: 240.0 mg/kg/injection, schedule: Q01DX Z (oral), vehicle: saline). The T/C (dose: 480.0 mg/kg/injection, schedule: Q01DX Z (oral), vehicle: saline) was 98 % of control.
`NC(=O)c1cc([N+](=O)[O-])ccc1N=NN(CCCl)CCCl`: the T/C is, setting by setting: under setting [8], 114 % of control; (dose: 177.0 mg/kg/injection, schedule: Q04DX003 (ip), vehicle: saline with Tween-80) 111 % of control; under setting [9], 107 % of control; (dose: 266.0 mg/kg/injection, schedule: Q04DX003 (ip), vehicle: saline with Tween-80) 114 % of control; under setting [12], 165 % of control.
For the compound `Cc1ccc(C#CP(C#Cc2ccc(C)cc2)C#Cc2ccc(C)cc2)cc1`, the T/C under setting [7] is 88 % of control.
Take `CC(C)C1C(C(C)C)N1C(=O)Nc1ccccc1` (stereo not given): the T/C reads like this: under setting [15], 93 % of control; under setting [16], 96 % of control; under setting [17], 93 % of control.
As to `COC(=O)c1ccc(SSc2ccc(C(=O)OC)cc2[N+](=O)[O-])c([N+](=O)[O-])c1`, the T/C runs as follows: under setting [7], 103 % of control; under setting [9], 102 % of control; under setting [11], 92 % of control.
Turning to `NC(=S)N/N=C/c1c(Cl)[nH]c2ccccc12`, the T/C under setting [18] was 98 % of control, the T/C under setting [13] is 102 % of control and the T/C under setting [14] was 98 % of control.
With `CCCCC(=O)NS(=O)(=O)c1ccccc1`, the T/C under setting [7] is 92 % of control; the T/C under setting [8] is 94 % of control; the T/C under setting [9] was 105 % of control; the T/C under setting [10] was 101 % of control; the T/C under setting [11] was 107 % of control; the T/C under setting [12] is 94 % of control.

(Values after PubChem BioAssay AID248 (DTP/NCI, 2004).)
